Measurements published in patent publication US8288430B2, “Spiro(5.5)undecane derivatives” (Grunenthal GmbH, priority 2008, dated 2012).

Assays:
[1] = tested on: Sprague Dawley rats (mechanical allodynia after spinal nerve ligature); assay: Chung model: mononeuropathic pain after spinal nerve ligature (SNL); format: in vivo; settings: at 5 μg/kg
hERG ion channel = hERG ion channel (Homo sapiens, UniProt Q12809); assay: hERG K+ channel binding assay, displacement of [3H] dofetilide; settings: for Ki (hERG) column, value given as % (1 μM): test concentration 1 μM
Sequence of hERG ion channel (Q12809 whole entry): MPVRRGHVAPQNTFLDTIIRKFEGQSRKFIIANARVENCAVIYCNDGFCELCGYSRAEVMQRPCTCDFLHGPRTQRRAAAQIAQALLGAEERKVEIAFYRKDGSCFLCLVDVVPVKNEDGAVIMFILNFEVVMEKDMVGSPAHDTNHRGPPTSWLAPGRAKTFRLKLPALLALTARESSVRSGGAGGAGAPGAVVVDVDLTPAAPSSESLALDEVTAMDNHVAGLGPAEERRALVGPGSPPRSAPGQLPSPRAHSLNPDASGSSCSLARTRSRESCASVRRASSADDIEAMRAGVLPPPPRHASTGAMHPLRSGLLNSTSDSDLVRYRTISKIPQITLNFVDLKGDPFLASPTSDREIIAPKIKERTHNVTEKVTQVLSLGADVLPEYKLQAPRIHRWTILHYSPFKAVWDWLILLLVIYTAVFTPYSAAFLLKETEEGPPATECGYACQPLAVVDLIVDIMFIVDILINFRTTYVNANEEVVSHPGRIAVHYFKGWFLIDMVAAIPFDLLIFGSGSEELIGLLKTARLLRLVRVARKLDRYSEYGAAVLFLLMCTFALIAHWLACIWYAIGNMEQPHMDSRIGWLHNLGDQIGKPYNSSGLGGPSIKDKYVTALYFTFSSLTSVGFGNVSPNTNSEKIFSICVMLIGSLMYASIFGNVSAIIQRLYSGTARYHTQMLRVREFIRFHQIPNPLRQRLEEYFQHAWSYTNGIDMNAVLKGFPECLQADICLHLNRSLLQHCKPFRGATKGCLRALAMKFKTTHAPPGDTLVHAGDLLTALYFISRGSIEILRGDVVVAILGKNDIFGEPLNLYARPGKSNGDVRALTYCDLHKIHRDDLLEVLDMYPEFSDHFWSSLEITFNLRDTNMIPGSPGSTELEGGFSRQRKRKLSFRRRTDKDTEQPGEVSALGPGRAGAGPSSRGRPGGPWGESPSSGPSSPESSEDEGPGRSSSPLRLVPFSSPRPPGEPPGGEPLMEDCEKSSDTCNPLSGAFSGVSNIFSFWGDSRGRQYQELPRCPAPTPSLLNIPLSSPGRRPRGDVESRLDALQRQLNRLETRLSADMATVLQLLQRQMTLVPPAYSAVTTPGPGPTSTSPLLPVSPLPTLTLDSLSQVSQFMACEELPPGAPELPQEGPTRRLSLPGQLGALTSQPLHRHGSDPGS

For `CN(C)C1(c2ccccc2)CCC2(CCCc3c2[nH]c2ccccc32)CC1` (single isomer, unassigned) [Ex. 2, N,N-dimethyl-4′-phenyl-2,3,4,9-tetrahydrospiro[carbazole-1,1′-cyclohexane]-4′-amine], the “SNL Rat, i.v.” value [1] was 19% MPE and the “Ki (hERG) Mean [μM]” value (hERG ion channel) was “n.e”.
Work on `CN(C)C1(c2ccccc2)CCC2(CC1)NCCc1c2[nH]c2ccccc12` (single isomer, unassigned) [C-2, reference compound] yielded a Ki (hERG ion channel) of 490 nM.
Compound `CN(C)C1(Cc2ccccc2)CCC2(CCCc3c2[nH]c2ccccc32)CC1` (stereo not drawn) has a melting point of 174 to 186 °C.
With `CN(C)C1(c2ccccc2)CCC2(CC1)NCCc1c2[nH]c2ccccc12` (single isomer, unassigned) [C-1, reference compound] the “Ki (hERG) column, value given as % (1 μM)” value (hERG ion channel) was 19% (1 μM).
With `CN(C)C1(c2ccccc2)CCC2(CCCc3c2[nH]c2ccccc32)CC1` (single isomer, unassigned) [Ex. 1, N,N-dimethyl-4′-phenyl-2,3,4,9-tetrahydrospiro[carbazole-1,1′-cyclohexane]-4′-amine] the “Ki (hERG) column, value given as % (1 μM)” value (hERG ion channel) was 13% (1 μM).
